Values quoted from earlier work in patent publication US20080241073A1, “Polymeric Micelle Type Mri Imaging Agent” (Kanagawa Academy of Science and Technology, priority 2004, published 2008).

Conditions: Corot et al., Non-patent Literature 2

T1 relaxivity: 3.4
SMILES: O=C([O-])CN1CCN(CC(=O)[O-])CCN(CC(=O)O)CCN(CC(=O)[O-])CC1.[Gd+3] [DOTA-Gd]
